Results reported in patent publication US20040072903A1, “Carboxyalkylether-acat inhibitors combinations” (priority 2002, published 2004).

Key:
Chow-Fed Rat = test: Effects of Treatment on Lipid and Lipoprotein Parameters in the Chow-Fed Rat; assay type: in vivo; parameters: TG (Triglyceride) / Cholesterol (Total cholesterol) / VLDL (Very low-density cholesterol) / LDL (Low-density cholesterol) / HDL (High-density cholesterol): unit not given here
man = conditions: in man, Helsinki Heart Study; cited from earlier work

Row | SMILES | Cholesterol (Total cholesterol) (Chow-Fed Rat; 10 mg/kg) | HDL (High-density cholesterol) (Chow-Fed Rat; 10 mg/kg) | HDL/VLDL + LDL (HDL divided by the sum of VLDL and LDL) (Chow-Fed Rat; 10 mg/kg) | LDL (Low-density cholesterol) (Chow-Fed Rat; 10 mg/kg) | TG (Triglyceride) (Chow-Fed Rat; 10 mg/kg) | VLDL (Very low-density cholesterol) (Chow-Fed Rat; 10 mg/kg) | Cholesterol (Total cholesterol) (Chow-Fed Rat; 30 mg/kg) | HDL (High-density cholesterol) (Chow-Fed Rat; 30 mg/kg) | HDL/VLDL + LDL (HDL divided by the sum of VLDL and LDL) (Chow-Fed Rat; 30 mg/kg) | LDL (Low-density cholesterol) (Chow-Fed Rat; 30 mg/kg) | TG (Triglyceride) (Chow-Fed Rat; 30 mg/kg) | VLDL (Very low-density cholesterol) (Chow-Fed Rat; 30 mg/kg) | further results
1 | CC(C)c1cc(C(C)C)c(CC(=O)NS(=O)(=O)Oc2c(C(C)C)cccc2C(C)C)c(C(C)C)c1 [Avisimbe] | 36 ± 2.3 | 19.5 ± 1.7 | 1.2 ± 0.1 | 12.0 ± 1.1 | 85 ± 16.8 | 3.9 ± 0.7 | 37 ± 2.9 | 22.2 ± 1.8 | 1.6 ± 0.1 | 12.0 ± 0.8 | 65 ± 12.9 | 2.1 ± 0.6 | –
2 | CC(C)(CCCCOCCCCC(C)(C)C(=O)O)C(=O)O [CI-1027] | 89 ± 8.5 | 76 ± 7.1 | 6.8 ± 0.7 | 9.1 ± 1.1 | 60 ± 8.8 | 2.8 ± 0.8 | 119 ± 21 | 100 ± 14.8 | 9.4 ± 2.7 | 17.6 ± 6.1 | 27 ± 2.0 | 0.7 ± 0.2 | Cholesterol (Total cholesterol) (Chow-Fed Rat; 3 mg/kg): 40 ± 1.4; HDL (High-density cholesterol) (Chow-Fed Rat; 3 mg/kg): 28 ± 1.0; HDL/VLDL + LDL (HDL divided by the sum of VLDL and LDL) (Chow-Fed Rat; 3 mg/kg): 2.4 ± 0.1; LDL (Low-density cholesterol) (Chow-Fed Rat; 3 mg/kg): 9.0 ± 0.5; TG (Triglyceride) (Chow-Fed Rat; 3 mg/kg): 70 ± 2.8; VLDL (Very low-density cholesterol) (Chow-Fed Rat; 3 mg/kg): 2.7 ± 0.3
3 | Cc1ccc(C)c(OCCCC(C)(C)C(=O)O)c1 [gemfibrozil] | – | – | – | – | – | – | – | – | – | – | – | – | HDL-C (man): increased; LDL-C (man): decreased; incidence of coronary artery disease (man): reduced
